Assay results: patent publication US6476037B1, “L-arginine and phosphodiesterase (PDE) inhibitor synergism” (The Regents of the University of California, priority 2000, dated 2002)
Like-named read-outs stand apart in the source and are kept apart here.

Experiments:
[1] = tested on: Systemic and Coronary Vasculature of the Pig; assay: Hemodynamic effects in chronically instrumented, anesthetized swine; type: in vivo
Protocol: Chronically instrumented female swine (70 kg, n=10) (ascending aortic and left anterior descending (LAD) coronary artery transit time flow probes, carotid and internal jugular pressures) were administered five doses of 1-arginine in five-minute intervals. After a period of recovery, four doses of nitroglycerin (1, 2, 3, 4 μg/kg/min) were infused. Sildenafil (100 mg IV) was administered and the 1-arginine and nitroglycerin administrations repeated.
After approval by the Institutional Animal Care and Use Committee, 70 kg female domestic swine (70.5±2.6 kg) were sedated with ketamine (25 mg/kg IM). Mask induction with isoflurane was followed by intubation with an endotracheal tube (6.0 ID 45 cm long). An angiocathether (20 gauge) was placed in an ear vein for IV fluid administration. Prophylactic antibiotics (cefazolin 1 gram IV prior to incision followed by cephalexin 500 mg PO BID) were given. The animal was ventilated with 100% oxygen and isoflurane to maintain anesthesia. A left thoracotomy (T4-5) was performed under sterile conditions. Transonics® (Ithaca, N.Y.) transit time flow probes were placed on the ascending aorta (model 28A) and the proximal left anterior descending coronary artery (3 mm, model 3S). The flow probe cables were tunneled to the animal's back. The thoracotomy was closed and air evacuated with a chest tube. The animals were given ketorolac (30 mg IV) followed by buprenorphine (0.3 to 0.6 mg IM Q8 hours for 5 days) for postoperative pain. The animals were allowed to recover for a minimum of two days before experimentation.
Previously instrumented swine were sedated with ketamine (25 mg/kg IM) and mask-induced with isoflurane. An angiocatheter (20 gauge) was placed in an ear vein for IV fluid administration. Animals were intubated (6.0 ID 45 cm long tube) and ventilated with 100% oxygen and isoflurane. Prophylactic antibiotics were given (cefazolin 1 gm IV). The animal's neck was then opened using sterile technique. Angiocatheters (16 gauge) were placed in the left and right internal jugular veins for central venous pressure monitoring and for drug and fluid infusions. An angiocatheter (20 gauge) was placed in the common carotid artery for blood sampling and pressure measurement. Arterial and central venous pressures were measured with disposable pressure transducers (Abbott Critical Care Systems Transpac® IV, North Chicago, Ill.) and the Transonics® Transit Time Flow meter (Model 206 with (-R) pRessure Option, Ithaca, N.Y.). ECG was monitored (Electronics for Medicine Monitor Model OM). The neck was closed. A supra-pubic bladder catheter was placed using sterile technique for urinary drainage. Data was recorded at 100 Hz using WinDaq data acquisition software (Transonics Systems, Ithaca, N.Y.). The pressure transducers were calibrated using a mercury manometer. Flow probes were calibrated prior to use.
Fentanyl (2 mg), diazepam (20 mg), and pancuronium (10 mg) were administered as a bolus. Isoflurane was simultaneously discontinued.

[2] = cited from earlier work
[3] = L-arginine levels after oral or intravenous L-arginine supplementation; type: in vivo; settings: preliminary trial, bolus 30 grams over 15 minutes; from 81±8
Protocol: With respect to the coronary disease applications, we note that L-arginine levels without supplementation are about 116±14 mmol/L and oral administration elevates the levels to about 224±26 mmol/L with improvement in vasomotor function. […] Intravenous infusions (10 mg/kg/min) raised L-arginine levels from about 102±5 to about 8172±122 mmol/L and caused vasodilation. In our preliminary trial a bolus of L-arginine (30 grams over 15 minutes) elevated levels (81±8 to 6900±600 μmol). In preferred embodiments, there were two fundamentally different ranges of L-Arginine levels achieved. Levels that were 1.5 to 2 times baseline and levels that were 50 to 100 times baseline.

[4] = Serum L-arginine and L-citrulline concentrations after IV L-arginine boluses; type: in vivo, swine
Protocol: 2. L-Arginine Administration: A bolus dose of 1-arginine (60 cc of 10% 1-arginine (6 grams)) was administered intravenously. Five minutes later a blood sample was taken. The dose was then repeated. This procedure was repeated a total of five times (total of 300 cc of 10% 1-arginine (30 grams) administered). Thirty minutes were allowed to elapse and then a final blood sample collected.
Blood samples were collected in serum separator tubes and immediately placed on ice. Tubes were centrifuged for 20 minutes and the serum removed and stored in cryovials at −80° C. L-arginine and 1-citrulline levels were quantified by the Protein Structure Lab at the University of California, Davis (Davis, Calif.) with an ion-exchange chromatographer (Beckman 6300 aminoacid analyzer, Fullerton, Calif.). Serum osmolality was measured using an osmometer (Advanced Instruments, Needleham Heights, Mass.) by the Veternary Medical Teaching Hospital Diagnostic Laboratories (Davis, Calif.).

[5] = L-arginine pharmacokinetic parameters from preliminary clinical and animal data; type: in vivo
Protocol: Computer simulation of the predicted L-arginine levels from the high dose (1 mcg/kg/min) yield levels of 420 mmol/L. (T1/2=10 minutes, Volume distribution=0.36 L/kg: obtained from our preliminary clinical and animal data). Computer simulations of the low dose (0.5 mcg/kg/min) yield levels of 260 mmol/L. These doses are in the range to improve endothelial function and prevent vasospasm but will not cause significant vasodilation.

[6] = l-arginine alone, five 6 gram IV boluses at 5 min intervals, mean±SE
[7] = first administration of sildenafil, 100 mg IV bolus, mean±SE
[8] = first dose of sildenafil, 100 mg IV bolus

Cl.N=C(N)NCCC[C@H](N)C(=O)O [L-Arginine, 1-arginine hydrochloride]
CO, Max Effect [1, 6]: 8.9 ± 0.5 L/min | CVP, Max Effect [1, 6]: 12.0 ± 1.0 mmHg | CVR, Max Effect [1, 6]: 89.1 ± 4.7 dynes*sec*cm^−5*10^3 | HR, Max Effect [1, 6]: 106.5 ± 6.7 beats/min | MAP, Max Effect [1, 6]: 107.4 ± 6.4 mmHg | SVR, Max Effect [1, 6]: 825.0 ± 39.3 dynes*sec*cm^−5 | LAD Flow, Max Effect ([1]; l-arginine alone, five 6 gram IV boluses at 5 min intervals, mean±SE, hydrochloride): 66.7 ± 6.6 mL/min | LAD Flow, Max Effect ([1]; l-arginine alone, five 6 gram IV boluses at 5 min intervals, mean±SE, listed as L-arginine, hydrochloride): 66.7 ± 6.6 mL/min | change in coronary blood flow relative to the change expected for a similar change in osmolality ([1]; l-arginine fifth dose compared with mannitol): 2.6 times | L-arginine levels ([2]; intravenous infusions 10 mg/kg/min, from about 102±5): about 8172±122 mmol/L | L-arginine levels ([2]; oral administration, without supplementation about 116±14): about 224±26 mmol/L | L-arginine levels [3]: 6900 ± 600 µmol | Serum [L-Arginine] ([4]; 5 min after Dose #1 (6 grams IV), no sildenafil): 1987.0 ± 116.8 µM | Serum [L-Arginine] ([4]; 5 min after Dose #2 (6 grams IV each), no sildenafil): 3139.2 ± 129.6 µM | Serum [L-Arginine] ([4]; 5 min after Dose #3 (6 grams IV each), no sildenafil): 4143.3 ± 205.4 µM | Serum [L-Arginine] ([4]; 5 min after Dose #4 (6 grams IV each), no sildenafil): 5232.7 ± 364.6 µM | Serum [L-Arginine] ([4]; 5 min after Dose #5 (total 30 grams IV), no sildenafil): 5922.1 ± 307.4 µM | Serum [L-Citrulline] ([4]; 5 min after L-arginine Dose #1 (6 grams IV), no sildenafil): 54.7 ± 5.2 µM | Serum [L-Citrulline] ([4]; 5 min after L-arginine Dose #2, no sildenafil): 53.2 ± 4.2 µM | Serum [L-Citrulline] ([4]; 5 min after L-arginine Dose #3, no sildenafil): 54.9 ± 4.4 µM | Serum [L-Citrulline] ([4]; 5 min after L-arginine Dose #4, no sildenafil, hydrochloride): 61.5 ± 6.7 µM | Serum [L-Citrulline] ([4]; 5 min after L-arginine Dose #4, no sildenafil, listed as 1-arginine, hydrochloride): 61.5 ± 6.7 µM | Serum [L-Citrulline] ([4]; 5 min after L-arginine Dose #5, no sildenafil): 60.2 ± 5.9 µM | Serum [L-Citrulline] ([4]; 30 min Post last L-arginine dose, no sildenafil): 60.5 ± 7.1 µM | Serum [L-Arginine] ([4]; 30 min Post last dose, no sildenafil): 2592.7 ± 268.9 µM | T1/2 [5]: 10 min | Volume distribution [5]: 0.36 L/kg

O=[N+]([O-])OCC(CO[N+](=O)[O-])O[N+](=O)[O-] [Nitroglycerin, nitroglycerin]
CO, Max Effect ([1]; in vivo, iv): 9.1 ± 0.7 L/min | CVP, Max Effect ([1]; in vivo, iv): 9.9 ± 1.0 mmHg | CVR, Max Effect ([1]; in vivo, iv): 98.9 ± 9.8 dynes*sec*cm^−5*10^3 | HR, Max Effect ([1]; in vivo, iv): 128.3 ± 9.0 beats/min | LAD Flow, Max Effect ([1]; in vivo, iv): 65.4 ± 6.7 mL/min | MAP, Max Effect ([1]; in vivo, iv): 103.9 ± 6.6 mmHg | SVR, Max Effect ([1]; in vivo, iv): 882.8 ± 98.6 dynes*sec*cm^−5

CCCc1nn(C)c2c(=O)[nH]c(-c3cc(S(=O)(=O)N4CCN(C)CC4)ccc3OCC)nc12 [sildenafil]
LAD flow, peak [1, 7]: 87.6 ± 7.3 mL/min | Mean arterial pressure, min. [1, 7]: 78.7±7.0 mmHg | cardiac output, peak [1, 7]: 10.5 ± 0.8 L/min | central venous pressure, min. [1, 7]: 9.1±1.1 mmHg | coronary vascular resistance, min. [1, 7]: 54.7±5.3 dynes*sec*cm^−5*10^3 | heart rate, peak [1, 7]: 165.0±8.9 beats/min | systemic vascular resistance, min. [1, 7]: 612.2±61.1 dynes*sec*cm^−5 | duration of effects on MAP, CVP, CVR, and SVR [1, 8]: persisted through the fifteen-minute observation period | duration of increase in cardiac output (disappeared after) [1, 8]: three | duration of increase in heart rate [1, 8]: about five | increase in cardiac output [1, 8]: 1.2 L/min | effect of sildenafil on the l-arginine-induced change in LAD flow ([1]; sildenafil 100 mg IV before l-arginine boluses, P<0.05): potentiated the effects of 1-arginine on LAD flow | time of peak hemodynamic effect following injection ([1]; sildenafil i.v. bolus): approximately two
